Experiment: Solubility in PGMEA: deposition of crystals from a PGMEA solution allowed to stand at room temperature over night
Format: physicochemical
Conditions: 30% by weight PGMEA solution, room temperature (20° C.) over night
Description: The compound (1-8) was dissolved in PGMEA to prepare a 20% by weight PGMEA solution.
The compound (1-19) was dissolved in PGMEA to prepare a 20% by weight PGMEA solution.
The compound (1-42) was dissolved in PGMEA to prepare a 30% by weight PGMEA solution.
The compound (1-52) was dissolved in PGMEA to prepare a 30% by weight PGMEA solution.
The compound (M1-3) was dissolved in PGMEA to prepare a 10% by weight PGMEA solution. […] It is understood from the comparison between the result and Example 1 that the compound of the invention having an oxycarbonyloxy bonding group instead of an ether bond is excellent in solubility in PGMEA. Furthermore, it is understood from the comparison between Example 5 and Example 6 that the solubility in PGMEA is further enhanced by introducing an ether structure (—O—) to the alkylene in the side chain.

Compound: C=CC(=O)OCCOCCOC(=O)Oc1ccc(C(=O)Oc2ccc3c(c2)C(C)c2cc(OC(=O)c4ccc(OC(=O)OCCOCCOC(=O)C=C)cc4)ccc2-3)cc1 [Compound 1-42]
- deposition of crystals from PGMEA solution: no deposition of crystals

Reference: US7985455B2, “Polymerizable liquid crystal compound, liquid crystal composition, and polymer” (JNC Corporation, priority 2007, dated 2011)
